What is called AUC(0-t) is the area under the concentration-time curve up to a stated or last time point. Higher therefore signals high exposure. What is called Cmax is the peak of the concentration-time curve.

Each structure is given as a SMILES string.

We go through 1 molecule from PMC8640676 (Journal of Pesticide Science, 2021).

The data set can be described thus: Toxicokinetics in plasma, rat 90-day study. The data set is classed as in vivo. The following applies: for AUC(0-t) / Cmax: rat, plasma, po.
Setting [1] is: female, Crl:CD(SD), 19 mg/kg bw/day.
Setting [2] is: male, Crl:CD(SD), 3 mg/kg bw/day.

For `Cn1c(C(F)(F)F)cc(=O)n(-c2cc(Oc3cccnc3OCC(=O)O)c(Cl)cc2F)c1=O` [S-3100-CA, (3-{2-chloro-4-fluoro-5-[1,2,3,6-tetrahydro-3-methyl-2,6-dioxo-4-(trifluoromethyl)pyrimidin-1-yl]phenoxy}pyridin-2-yloxy)acetic acid], the “AUC0–24 of S-3100-CA at NOAEL, fold change vs. corresponding mouse value” (female rats vs female mice) is recorded as 2.2 fold. Besides, the “Cmax of S-3100-CA at NOAEL, fold change vs. corresponding mouse value” was found to be 2.0 fold (female rats vs female mice) and 1.6 fold (male rats vs male mice). The AUC(0-t) under setting [1] was 5020 ng·h/mL; the AUC(0-t) (female, Crl:CD(SD), 50 ppm) turned out to be 879 ng·h/mL; the AUC(0-t) (female, 300 ppm in diet) stood at 5020 ng·h/mL; the AUC(0-t) (female, 800 ppm in diet) was found to be 13200 ng·h/mL; the area under the curve AUC(0-t) under setting [2] is 467 ng·h/mL; the exposure AUC(0-t) (male, Crl:CD(SD), 50 ppm) came out at 467 ng·h/mL. The AUC(0-t) (male, 300 ppm in diet) is 4010 ng·h/mL. Also, the highest concentration (Cmax) by setting is: under setting [1], 266 ng/mL; (female, 50 ppm in diet) 46.5 ng/mL; (female, 300 ppm in diet) 266 ng/mL; (female, 800 ppm in diet) 756 ng/mL; under setting [2], 20.7 ng/mL; (male, Crl:CD(SD), 50 ppm) 20.7 ng/mL. In addition, for the setting “male, 300 ppm in diet”, the concentration peaked (Cmax) at 248 ng/mL.
